Common to all, as to assay: relative viability (nuclei count vs DMSO), 5 days (fraction); higher = more cells survive
Compound in test [1]: C1CC1C(=O)NC2=NNC3=C2C=CC(=C3)C4=CC(=CC=C4)C(=O)NC5CC5 [XMD13-2] + Cc1nc(Nc2ncc(C(=O)Nc3c(C)cccc3Cl)s2)cc(N2CCN(CCO)CC2)n1 [Dasatinib] (partner 0.075 µM)
A digest of the protocol:
(§1)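 Nuclei were stained with Hoechst during a one-step fixation (final 0.05% Triton X-100, 1% formaldehyde, 1 ug/ml Hoechst) carried out 5 days after dosing, then counted on 4× images. The cells, lung cancer lines in 1536-well plates, had been dosed by pin tool the day after seeding with one drug alone or a fixed anchor-drug dose plus five library-drug doses (not always all listed) in √10 steps. Relative viability is the nuclei count in treated wells divided by that in vehicle wells, and each value is the median of duplicate plates.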

Compound in test [2]: C1CC1C(=O)NC2=NNC3=C2C=CC(=C3)C4=CC(=CC=C4)C(=O)NC5CC5 [XMD13-2] + Nc1ncn([C@H]2C[C@H](O)[C@@H](CO)O2)c(=O)n1 [Decitabine] (partner 2 µM)
The gist of the method: as §1

Compound in test [3]: C1CC1C(=O)NC2=NNC3=C2C=CC(=C3)C4=CC(=CC=C4)C(=O)NC5CC5 [XMD13-2] + Nc1nc2[nH]cc(CCc3ccc(C(=O)N[C@@H](CCC(=O)O)C(=O)O)cc3)c2c(=O)[nH]1 [Pemetrexed] (partner 0.2 µM)
A digest of the protocol:
as §1

Compound in test [4]: C1CC1C(=O)NC2=NNC3=C2C=CC(=C3)C4=CC(=CC=C4)C(=O)NC5CC5 [XMD13-2] + CCNC(=O)c1noc(-c2cc(C(C)C)c(O)cc2O)c1-c1ccc(CN2CCOCC2)cc1 [Luminespib] (partner 0.01 µM)
A digest of the protocol: as §1

On to UMC-11, for which the relative viability in test [1] (first compound 0.05 µM) was 0.55; in test [1] (first compound 0.1581 µM), 0.428; in test [1] (first compound 0.5 µM), 0.477; in test [1] (first compound 1.581 µM) it was 0.505; in test [1] (first compound 5 µM) it was 0.453; in test [2] (first compound 0.05 µM), 0.62. In addition, the relative viability came out at 0.585 in test [2] (first compound 0.1581 µM); 0.793 in test [2] (first compound 0.5 µM); 0.625 in test [2] (first compound 1.581 µM); 0.579 in test [2] (first compound 5 µM); 0.914 in test [3] (first compound 0.05 µM); 0.761 in test [3] (first compound 0.1581 µM). Also, the relative viability was 0.791 in test [3] (first compound 0.5 µM); 0.845 in test [3] (first compound 1.581 µM); 0.772 in test [3] (first compound 5 µM); 1.11 in test [4] (first compound 0.05 µM); 1.02 in test [4] (first compound 0.1581 µM); 0.992 in test [4] (first compound 0.5 µM). The relative viability in test [4] (first compound 1.581 µM) was determined as 0.961; in test [4] (first compound 5 µM) it was 0.974.

The values are drawn from the supplement of paper PMC10307832.
